Where a name gives a salt, the structure may show the parent alone.

One may read the Ki as a dissociation constant, usually derived from enzyme kinetics or from competition with a known ligand.

One assay deals with binding of tritiated LTB4 to guinea pig lung membranes (Cavia porcellus, UniProt H0VYV8). Description: biochemical. Conditions: inhibition of [3H]-LTB4 binding, guinea pig lung membranes; mean of n experiments; ~140 pM [3H]-LTB4, 45 minutes, 30° C., pH 6.5.
Sequence of binding of tritiated LTB4 to guinea pig lung membranes (H0VYV8 1-348): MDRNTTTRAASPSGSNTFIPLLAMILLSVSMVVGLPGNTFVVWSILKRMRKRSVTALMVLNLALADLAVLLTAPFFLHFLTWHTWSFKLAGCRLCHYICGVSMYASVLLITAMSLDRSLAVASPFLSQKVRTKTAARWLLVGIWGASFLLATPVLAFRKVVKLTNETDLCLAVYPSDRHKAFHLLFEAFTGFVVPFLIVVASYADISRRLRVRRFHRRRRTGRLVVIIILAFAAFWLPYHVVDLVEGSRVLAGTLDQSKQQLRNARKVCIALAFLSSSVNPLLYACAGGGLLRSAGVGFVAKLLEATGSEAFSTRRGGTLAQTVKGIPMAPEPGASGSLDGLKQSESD
Procedure: The effectiveness of compounds of Formula I to inhibit the binding of tritiated LTB4 to guinea pig lung membranes was determined as follows.
The binding reaction was terminated by the addition of 1 mL ice cold wash buffer (25 mM Tris-HCl, pH 7.5) followed immediately by vacuum filtration over Whatman GF/C glass fiber filters using a Brandel (Gaithersburg, Md.) 48 place harvester. The filters were washed three times with 1 mL of wash buffer. Retained radioactivity was determined by liquid scintillation counting at 50% counting efficiency using Ready Protein Plus cocktail (Beckman, Fullerton, Calif.). Nondisplaceable binding was determined in the presence of 1 μM LTB4 and was usually less than 10% of total binding. […] The data reported below is the mean -log Ki, otherwise known as the pKi, for n experiments.
With `CCc1cc(-c2ccc(F)cc2)c(O)cc1OCCCOc1cccc(C(=O)c2ccccc2C(=O)O)c1` [Example 97, 2-[3-[3-[2-Ethyl-5-hydroxy-4-(4-fluorophenyl)phenoxy]propoxy]benzoyl]benzoic acid disodium salt hemihydrate], the “pKi (mean -log Ki)” value turned out to be 7.67.

Still in this assay, the particulars now being: read-out: pKi (mean -log Ki) (converted).
Regarding `CCc1cc(-c2ccccc2)c(O)cc1OCCCOc1cc(-c2ccccc2)ccc1CCC(=O)O` [Example 62, 3-[3-(2-Ethyl-5-hydroxy-4-phenylphenoxy)propoxy][1,1'-biphenyl]-4-propanoicacid disodium salt monohydrate], the Ki is 57.5 nM.
Regarding `CCCc1c(OCCCOc2cc(O)c(-c3ccccc3)cc2CC)cccc1Oc1ccccc1-c1nnn[nH]1` [Example 63, 5-Ethyl-4-[3-[2-propyl-3-[2-(2H-tetrazol-5-yl)phenoxy]phenoxy]propoxy][1,1'-biphenyl]-2-ol disodium salt sesquihydrate], the Ki is 11.5 nM.
On to `CCc1cc(-c2ccccc2)c(O)cc1OCCCOc1ccc2c(=O)c3ccccc3oc2c1CCC(=O)O` [Example 64, 3-[4-[3-[3-(2-Ethyl-5-hydroxy-4-phenylphenoxy)propoxy]-9-oxo-9H-xanthene]]propanoicacid sodium salt hemihydrate], for which the Ki was 14.1 nM.
In the case of `CCCc1c(OCCCOc2cc(O)c(-c3ccccc3)cc2CC)cccc1Oc1cccc(F)c1C(=O)O` [Example 65, 2-Fluoro-6-[2-propyl-3-[3-(2-ethyl-5-hydroxy-4-phenylphenoxy)propoxy]phenoxy]benzoic acid disodium salt], the Ki was 12.3 nM.
The same measure, in the same setting: next, `CCc1cc(-c2ccc(F)cc2)c(O)cc1OCCCOc1ccc2c(=O)c3cc(C(=O)O)ccc3oc2c1CCC(=O)O` [Example 67, 3-[4-[7-Carboxy-9-oxo-3-[3-[2-ethyl-4-(4-fluorophenyl)-5-hydroxyphenoxy]propoxy]-9H-xanthene]] propanoic acid disodium salt trihydrate]: 0.024 nM; `CCc1cc(-c2ccc(F)cc2)c(O)cc1OCCCOc1ccc2c(=O)c3ccccc3oc2c1CCC(=O)O` [Example 68, 3-[4-[9-Oxo-3-[3-[2-ethyl-4-(4-fluorophenyl)-5-hydroxyphenoxy]propoxy]-9H-xanthene]]propanoic acid]: 3.47 nM; `CCc1cc(-c2ccc(F)cc2)c(O)cc1OCCCOc1ccc(NC(=O)CCCC(=O)N2CCOCC2)cc1CCC(=O)O` [Example 69]: 12.9 nM.
Consider `CCCc1c(OCCCOc2cc(O)c(-c3ccc(F)cc3)cc2CC)cccc1Oc1cccc(F)c1C(=O)O` [Example 70, 2-Fluoro-6-[2-propyl-3-[3-[2-ethyl-5-hydroxy-4-(4-fluorophenyl)phenoxy]propoxy]phenoxy]benzoic acid disodium salt hydrate], for which the Ki was 8.13 nM.
Still for that read-out and setting: next, `CCCc1c(OCCCOc2cc(O)c(-c3ccc(F)cc3)cc2CC)cccc1Oc1cc(F)ccc1C(=O)O` [Example 71, 4-Fluoro-2-[2-propyl-3-[3-[2-ethyl-5-hydroxy-4-(4-fluorophenyl)phenoxy]propoxy]phenoxy]benzoic acid]: 17 nM.
Still for that read-out and setting: next, `CCCc1c(OCCCCCOc2cc(O)c(-c3ccc(F)cc3)cc2CC)cccc1Oc1ccccc1C(=O)O` [Example 72, 2-[2-Propyl-3-[5-[2-ethyl-5-hydroxy-4-(4-fluorophenyl)phenoxy]pentoxy]phenoxy]benzoic acid]: 6.61 nM; `CCCc1c(OCCCCOc2cc(O)c(-c3ccc(F)cc3)cc2CC)cccc1Oc1ccccc1C(=O)O` [Example 73, 2-[2-Propyl-3-[4-[2-ethyl-5-hydroxy-4-(4-fluorophenyl)phenoxy]butoxy]phenoxy]benzoic acid sesquihydrate]: 17.8 nM.
As for `CCc1cc(-c2ccc(F)cc2)c(O)cc1OCCCOc1cccc(Oc2ccccc2C(=O)O)c1CC(C)C` [Example 74, 2-[2-(2-Methylpropyl)-3-[3-[2-ethyl-5-hydroxy-4-(4-fluorophenyl)phenoxy]propoxy]phenoxy]benzoic acid], the Ki was 13.8 nM.
Regarding `CCCCc1c(OCCCOc2cc(O)c(-c3ccc(F)cc3)cc2CC)cccc1Oc1ccccc1C(=O)O` [Example 75, 2-[2-Butyl-3-[3-[2-ethyl-5-hydroxy-4-(4-fluorophenyl)phenoxy]propoxy]phenoxy]benzoic acid hydrate], the Ki is 16.2 nM.
Still for that read-out and setting: to `CCc1cc(-c2ccc(F)cc2)c(O)cc1OCCCOc1cccc(Oc2ccccc2C(=O)O)c1Cc1ccccc1` [Example 76, 2-[2-(Phenylmethyl)-3-[3-[2-ethyl-5-hydroxy-4-(4-fluorophenyl)phenoxy]propoxy]phenoxy]benzoic acid] belongs 53.7 nM; to `CCCc1c(OCCCOc2cc(O)c(-c3ccc(F)cc3)cc2CC)cccc1Oc1ccccc1CC(=O)O` [Example 77, 2-[2-Propyl-3-[3-[2-ethyl-5-hydroxy-4-(4-fluorophenyl)phenoxy]propoxy]phenoxy]phenylacetic acid], 8.13 nM.
`CCCc1c(OCCCOc2cc(O)c(-c3ccc(F)cc3)cc2CC)cccc1C(=O)c1ccccc1C(=O)O` [Example 78, 2-[2-Propyl-3-[3-[2-ethyl-5-hydroxy-4-(4-fluorophenyl)phenoxy]propoxy]benzoyl]benzoic acid]: the Ki was 9.55 nM.
Consider `CCCc1c(Cc2ccccc2C(=O)O)cccc1OCCCOc1cc(O)c(-c2ccc(F)cc2)cc1CC` [Example 79, 2-[[2-Propyl-3-[3-[2-ethyl-5-hydroxy-4-(4-fluorophenyl)phenoxy]propoxy]phenyl]methyl]benzoic acid], for which the Ki is 10.5 nM.
Still for that read-out and setting: next, `CCCc1c(OCCCOc2cc(O)c(-c3ccc(F)cc3)cc2CC)cccc1Sc1ccccc1C(=O)O` [Example 80, 2-[2-Propyl-3-[3-[2-ethyl-4-(4-fluorophenyl)-5-hydroxyphenoxy]propoxy]thiophenoxy]benzoic acid]: 11.2 nM; `CCCc1c(OCCCOc2cc(O)c(-c3ccc(F)cc3)cc2CC)cccc1[S+]([O-])c1ccccc1C(=O)O` (stereo not shown) [Example 81, 2-[2-Propyl-3-[3-[2-ethyl-4-(4-fluorophenyl)-5-hydroxyphenoxy]propoxy]phenylsulfinyl]benzoic acid]: 1.35 nM.
Turning to `CCCc1c(OCCCOc2cc(O)c(-c3ccc(F)cc3)cc2CC)cccc1S(=O)(=O)c1ccccc1C(=O)O` [Example 82, 2-[2-Propyl-3-[3-[2-ethyl-4-(4-fluorophenyl)-5-hydroxyphenoxy]propoxy]phenylsulfonyl]benzoic acid hydrate], the Ki is 10.2 nM.
Regarding `CCc1cc(-c2ccc(F)cc2)c(O)cc1OCCCOc1ccc(C#CCCC(=O)O)cc1CCC(=O)O` [Example 83, 5-[3-[2-(1-Carboxy)ethyl]-4-[3-[2-ethyl-4-(4-fluorophenyl)-5-hydroxyphenoxy]propoxy]phenyl]-4-pentynoic acid disodium salt 0.4 hydrate], the Ki was 0.0661 nM.
On the same count and under the same terms, to `CCc1cc(-c2ccc(F)cc2)c(O)cc1OCCCCCC(c1ccc(OCC(=O)O)cc1)c1nn[nH]n1` (stereo not shown) [Example 85, 1-(4-(Carboxymethoxy)phenyl)-1-(1H-tetrazol-5-yl)-6-(2-ethyl-4-(4-fluorophenyl)-5-hydroxyphenoxy)hexane] belongs 0.245 nM.
Still for that read-out and setting: to `CCc1cc(-c2ccc(F)cc2)c(O)cc1OCCCOc1ccccc1/C=C/C(=O)O` [Example 87, 3-(2-(3-(2-Ethyl-4-(4-fluorophenyl)-5-hydroxyphenoxy)propoxy)phenyl)-E-propenoic acid] belongs 9.55 nM; to `CCc1cc(-c2ccc(F)cc2)c(O)cc1OCCCOc1ccccc1/C=C(\C)C(=O)O` [Example 88, 3-(2-(3-(2-Ethyl-4-(4-fluorophenyl)-5-hydroxyphenoxy)propoxy)phenyl)-2-methyl-E-propenoic acid], 5.01 nM; to `CCc1cc(-c2ccc(F)cc2)c(O)cc1OCCCOc1ccccc1CCc1nnn[nH]1` [Example 89, 5-(2-(2-(3-(2-Ethyl-4-(4-fluorophenyl)-5-hydroxyphenoxy)propoxy)phenyl)ethyl)-1H-tetrazole], 14.1 nM.
Turning to `CCc1cc(-c2ccc(F)cc2)c(O)cc1OCCCOc1cc(OCCCCC(=O)O)ccc1CCC(=O)O` [Example 90, 3-(2-(3-(2-Ethyl-4-(4-fluorophenyl)-5-hydroxyphenoxy)propoxy)-4-(4-carboxybutyloxy)phenyl)propionic acid], the Ki is 20.9 nM.
Still for that read-out and setting: to `CCc1cc(-c2ccc(F)cc2)c(O)cc1OCCCOc1cccc2c1CCC(=O)O2` [Example 91, 5-[3-[4-(4-Fluorophenyl)-2-ethyl-5-hydroxyphenoxy]propoxy]-3,4-dihydro-2H-1-benzopyran-2-one] belongs 0.525 nM; to `CCc1cc(-c2ccc(F)cc2)c(O)cc1OCCCOc1cccc(CCC(=O)O)c1` [Example 92, 3-(3-{3-[2-Ethyl-4-(4-fluorophenyl)-5-hydroxyphenyloxy]propoxy}phenyl)propanoic acid], 8.32 nM; to `CCCc1cc(CCC(=O)O)ccc1OCCCOc1cc(O)c(-c2ccc(F)cc2)cc1CC` [Example 94, 3-(4-{3-[2-Ethyl-4-(4-fluorophenyl)-5-hydroxyphenyloxy]propoxy}-3-propylphenyl)propanoic acid], 20.9 nM.
The same measure, in the same setting: to `CCCc1c(CCC(=O)O)cccc1OCCCOc1cc(O)c(-c2ccc(F)cc2)cc1CC` [Example 95, 3-(3-{3-[2-Ethyl-4-(4-fluorophenyl)-5-hydroxyphenyloxy]propoxy}-2-propylphenyl)propanoic acid] belongs 5.5 nM.
On the same count and under the same terms, next, `CCCc1c(CCC(=O)O)cccc1OCCCOc1cc(O)c(-c2ccccc2)cc1CC` [Example 96, disodium salt]: 25.1 nM; `CCCc1c(OCCCOc2cc(O)c(-c3ccc(F)cc3)cc2CC)cccc1Oc1ccccc1C(=O)O` [sodium salt]: 5.62 nM; `CCCc1ccc(CCC(=O)O)cc1OCCCOc1cc(O)c(-c2ccc(F)cc2)cc1CC` [sodium salt]: 102 nM.

Source of the values: US5462954A, “Substituted phenyl phenol leukotriene antagonists” (Eli Lilly and Company, priority 1994, dated 1995).
